# Experimental data taken from patent US6667335B2, “Imidazole derivatives” (Hoffmann-La Roche Inc., priority 2001, dated 2003).
# Counter-ions that a name gives are not always drawn.
row,Compound,melting point
1,Cc1nccn1Cc1cn(-c2ccc([N+](=O)[O-])cc2)cn1.Cl.Cl,> 250 °C
2,CCc1nccn1Cc1cn(-c2ccc([N+](=O)[O-])cc2)cn1.Cl.Cl,196 to 197 °C
3,Cl.Cl.O=[N+]([O-])c1ccc(-n2cnc(Cn3ccnc3)c2)cc1,245 to 246 °C
4,Cc1cnc(C)n1Cc1cn(-c2ccc(Cl)c(Cl)c2)cn1.Cl.Cl,> 250 °C
5,Cc1nccn1Cc1ccn(-c2ccc(Cl)c(Cl)c2)n1.Cl,204 to 205 °C
6,CSc1nccn1Cc1cn(-c2ccc(Cl)c(C)c2)cn1.Cl.Cl,202 to 204 °C (dec.)
7,CSc1cccc(-n2cnc(Cn3ccnc3C)c2)c1.Cl.Cl,> 200 °C (dec.)
8,CCc1nccn1Cc1cn(-c2cccc(OC(F)(F)F)c2)cn1.Cl.Cl,237 to 239 °C
9,Cl.Cl.FC(F)(F)Oc1cccc(-n2cnc(Cn3ccnc3)c2)c1,233 to 234 °C
10,Cl.Cl.Clc1cccc(-n2cnc(Cn3ccnc3)c2)c1,> 200 °C (dec.)
11,Cl.Cl.Fc1cc(-n2cnc(Cn3ccnc3)c2)cc(C(F)(F)F)c1,233 to 234 °C
12,Cl.Cl.c1cn(Cc2cn(-c3ccc4c(c3)CCC4)cn2)cn1,214 to 216 °C
13,COc1cc(-n2cnc(Cn3ccnc3)c2)cc(C(F)(F)F)c1.Cl.Cl,244 to 246 °C
14,CCc1nccn1Cc1cn(-c2cccc(C(C)(C)C)c2)cn1.Cl.Cl,205 °C (dec.)
15,CC(C)(C)c1cccc(-n2cnc(Cn3ccnc3)c2)c1.Cl.Cl,> 200 °C (dec.)
16,CCc1nccn1Cc1cn(-c2ccc(OC(F)(F)F)c(Cl)c2)cn1.Cl.Cl,> 250 °C
17,Cl.Cl.FC(F)(F)Oc1ccc(-n2cnc(Cn3ccnc3)c2)cc1Cl,212 to 213 °C
18,CCc1nccn1Cc1cn(-c2ccc(C)c(C)c2)cn1.Cl.Cl,> 250 °C
19,Cc1nccn1Cc1cn(-c2cccc(OC(F)F)c2)cn1.Cl.Cl,220 to 222 °C
20,Cl.Cl.FC(F)Oc1cccc(-n2cnc(Cn3ccnc3)c2)c1,205 to 206 °C
21,CCc1nccn1Cc1cn(-c2cccc(C(F)F)c2)cn1.Cl.Cl,219 to 220 °C
22,Cl.Cl.FC(F)c1cccc(-n2cnc(Cn3ccnc3)c2)c1,216 to 217 °C
23,CNc1nccn1Cc1cn(-c2ccc(Cl)c(Cl)c2)cn1.Cl,> 250 °C
24,CNc1nccn1Cc1ncn(-c2ccc(Cl)c(Cl)c2)c1CO.Cl,> 180 °C (dec.)
25,Cc1nccn1Cc1cn(-c2cc(F)cc(Br)c2)cn1.Cl.Cl,> 200 °C (dec.)

row,Compound,melting point
1,Cc1ccc(-n2cnc(Cn3ccnc3C)c2)cc1C.Cl.Cl,249 to 251 °C
2,Cl.Cl.Fc1cc(Br)cc(-n2cnc(Cn3ccnc3)c2)c1,> 200 °C (dec.)
3,CCc1nccn1Cc1cn(-c2ccc3c(c2)OC(F)(F)O3)cn1.Cl.Cl,237 to 239 °C (dec.)
4,Cc1nccn1Cc1cn(-c2ccc3c(c2)OC(F)(F)O3)cn1.Cl.Cl,> 250 °C
5,CCc1nccn1Cc1cn(-c2ccc(SC(F)(F)F)c(Cl)c2)cn1.Cl.Cl,214 to 215 °C
6,Cc1nccn1Cc1cn(-c2ccc(SC(F)(F)F)c(Cl)c2)cn1.Cl.Cl,195 to 198 °C
7,Cl.Cl.FC(F)(F)Sc1ccc(-n2cnc(Cn3ccnc3)c2)cc1Cl,244 to 245 °C
8,Cc1nccn1Cc1cn(-c2cc3ccccc3cn2)cn1.Cl.Cl,> 250 °C
9,CCc1nccn1Cc1cn(-c2ccc(OC(F)(F)F)cc2)cn1.Cl.Cl,216 to 218 °C
10,CCc1nccn1Cc1cn(-c2ccc(SC(F)(F)F)cc2)cn1.Cl.Cl,183 to 185 °C
11,Cc1nccn1Cc1cn(-c2ccc(SC(F)(F)F)cc2)cn1.Cl.Cl,249 to 250 °C
12,Cc1ccc(-n2cnc(Cn3ccnc3C)c2)cc1.Cl.Cl,> 250 °C
13,Cc1ccc(-n2cnc(Cn3ccnc3)c2)cc1.Cl.Cl,228 to 229 °C
14,CCc1nccn1Cc1cn(-c2ccc(F)c(C)c2)cn1.Cl.Cl,210 to 212 °C
15,Cc1cc(-n2cnc(Cn3ccnc3)c2)ccc1F.Cl.Cl,242 to 243 °C
16,CCc1nccn1Cc1cn(-c2ccc(SC)cc2)cn1.Cl.Cl,161 to 162 °C
17,CSc1ccc(-n2cnc(Cn3ccnc3)c2)cc1.Cl.Cl,233 to 234 °C
18,Cc1nccn1Cc1cn(-c2cccc(C(F)(F)F)c2)cn1.Cl.Cl,218 to 220 °C
19,CCc1nccn1Cc1cn(-c2cccc(C(F)(F)F)c2)cn1.Cl.Cl,216 to 218 °C
20,CCc1nccn1Cc1cn(-c2ccc(F)c(C(F)(F)F)c2)cn1.Cl.Cl,> 238 °C (dec.)
21,Cl.Cl.Fc1ccc(-n2cnc(Cn3ccnc3)c2)cc1C(F)(F)F,> 246 °C (dec.)
22,CCc1nccn1Cc1cn(-c2ccc(C)c(C(F)(F)F)c2)cn1.Cl.Cl,> 250 °C
23,Cc1ccc(-n2cnc(Cn3ccnc3)c2)cc1C(F)(F)F.Cl.Cl,> 250 °C
24,CCc1nccn1Cc1cn(-c2ccc(Cl)c(OC)c2)cn1.Cl.Cl,244 to 246 °C (dec.)
25,COc1cc(-n2cnc(Cn3ccnc3C)c2)ccc1Cl.Cl.Cl,> 250 °C

row,Compound,melting point
1,COc1cc(-n2cnc(Cn3ccnc3)c2)ccc1Cl.Cl.Cl,221 to 222 °C
2,COc1cc(-n2cnc(Cn3ccnc3C)c2)ccc1F.Cl.Cl,> 220 °C (dec.)
3,COc1cc(-n2cnc(Cn3ccnc3)c2)ccc1F.Cl.Cl,174 to 178 °C
4,CCc1nccn1Cc1cn(-c2ccc(Cl)cc2)cn1.Cl.Cl,200 to 201 °C
5,Cl.Cl.Clc1ccc(-n2cnc(Cn3ccnc3)c2)cc1Cl,> 250 °C
6,Cl.Cl.Clc1ccc(-n2cnc(Cn3ccnc3)c2)cc1,228 to 229 °C
7,CCc1nccn1Cc1cn(-c2ccc3c(c2)OCO3)cn1.Cl.Cl,> 250 °C
8,Cl.Cl.c1cn(Cc2cn(-c3ccc4c(c3)OCO4)cn2)cn1,197 to 198 °C
9,Cc1ccc(-n2cnc(Cn3ccnc3C)c2)cc1F.Cl.Cl,> 250 °C
10,CCc1nccn1Cc1cn(-c2ccc(C)c(F)c2)cn1.Cl.Cl,> 250 °C
11,Cc1ccc(-n2cnc(Cn3ccnc3)c2)cc1F.Cl.Cl,223 to 224 °C
12,COc1ccc(-n2cnc(Cn3ccnc3C)c2)cc1Cl.Cl.Cl,240 to 241 °C
13,COc1ccc(-n2cnc(Cn3ccnc3)c2)cc1Cl.Cl.Cl,245 to 246 °C
14,Cc1nccn1Cc1cn(-c2ccc(Cl)cc2F)cn1.Cl.Cl,235 to 236 °C
15,CCc1nccn1Cc1cn(-c2ccc(Cl)cc2F)cn1.Cl.Cl,248 to 249 °C
16,Cl.Cl.Fc1cc(Cl)ccc1-n1cnc(Cn2ccnc2)c1,> 212 °C (dec.)
17,CCc1nccn1Cc1cn(-c2ccc(Br)cc2)cn1.Cl.Cl,> 250 °C
18,Brc1ccc(-n2cnc(Cn3ccnc3)c2)cc1.Cl.Cl,237 to 239 °C
19,CCc1nccn1Cc1cn(-c2ccc(OC(F)F)cc2)cn1.Cl.Cl,199 to 200 °C
20,Cc1nccn1Cc1cn(-c2ccc(OC(F)F)cc2)cn1.Cl.Cl,228 to 229 °C
21,CCc1nccn1Cc1cn(-c2ccc(OCc3ccccc3)cc2)cn1.Cl.Cl,222 to 223 °C
22,Cl.Cl.c1ccc(COc2ccc(-n3cnc(Cn4ccnc4)c3)cc2)cc1,224 to 225 °C
23,CCc1nccn1Cc1cn(-c2ccc(C)c(OC)c2)cn1.Cl.Cl,> 250 °C
24,COc1cc(-n2cnc(Cn3ccnc3)c2)ccc1C.Cl.Cl,249 to 251 °C
25,CCc1nccn1Cc1cn(-c2ccc(C(F)(F)F)cc2)cn1.Cl.Cl,240 to 242 °C

row,Compound,melting point
1,Cc1nccn1Cc1cn(-c2ccc(C(F)(F)F)cc2)cn1.Cl.Cl,246 to 248 °C
2,Cl.Cl.FC(F)(F)c1ccc(-n2cnc(Cn3ccnc3)c2)cc1,220 to 222 °C
3,CCc1nccn1Cc1cn(-c2ccc3c(c2)COC3)cn1.Cl.Cl,> 108 °C (dec.)
4,Cc1nccn1Cc1cn(-c2ccc3c(c2)COC3)cn1.Cl.Cl,> 250 °C
5,COc1ccc(-n2cnc(Cn3ccnc3C)c2)cc1F.Cl.Cl,238 to 240 °C
6,Cc1ncn(Cc2cn(-c3ccc(Cl)c(Cl)c3)cn2)c1C.Cl.Cl,> 250 °C
7,CCc1nccn1Cc1cn(-c2ccc(OC)c(F)c2)cn1.Cl.Cl,218 to 220 °C
8,COc1ccc(-n2cnc(Cn3ccnc3C)c2)cc1.Cl.Cl,> 250 °C
9,CCc1nccn1Cc1cn(-c2cccc(OC)c2)cn1.Cl.Cl,246 to 248 °C
10,COc1cccc(-n2cnc(Cn3ccnc3C)c2)c1.Cl.Cl,242 to 243 °C
11,COc1cccc(-n2cnc(Cn3ccnc3)c2)c1.Cl.Cl,219 to 220 °C
12,COc1ccc(-n2cnc(Cn3ccnc3C)c2)cc1C(F)(F)F.Cl.Cl,> 222 °C (dec.)
13,CCc1nccn1Cc1cn(-c2ccc(OC)c(C(F)(F)F)c2)cn1.Cl.Cl,> 226 °C (dec.)
14,CCc1nccn1Cc1cn(-c2ccc(C)c(Cl)c2)cn1.Cl.Cl,178 to 179 °C
15,Cl.Cl.Clc1ccc(-n2cnc(Cn3ccnc3-c3ccccc3)c2)cc1Cl,197 to 198 °C
16,CCc1nccn1Cc1cn(-c2ccc(Cl)c(C(F)(F)F)c2)cn1.Cl.Cl,179 to 180 °C
17,Cc1nccn1Cc1cn(-c2ccc(Cl)c(C(F)(F)F)c2)cn1.Cl.Cl,> 250 °C
18,Cl.Cl.FC(F)(F)c1cc(-n2cnc(Cn3ccnc3)c2)ccc1Cl,> 250 °C
19,Cl.Cl.Fc1ccc(-n2cnc(Cn3ccnc3)c2)cc1Cl,210 to 212 °C
20,CCc1nccn1Cc1cn(-c2ccc(-c3ccccc3)cc2)cn1.Cl.Cl,248 to 253 °C
21,Cc1nccn1Cc1cn(-c2ccc(-c3ccccc3)cc2)cn1.Cl.Cl,169 to 175 °C
22,CCc1nccn1Cc1cn(-c2ccc(C(C)C)c(C)c2)cn1.Cl.Cl,> 180 °C (dec.)
23,Cc1ccc(-n2cnc(Cn3ccnc3)c2)cc1C (as salt: hydrochloride) [Example 21],218 to 219 °C
24,CSc1ccc(-n2cnc(Cn3ccnc3C)c2)cc1 (as salt: hydrochloride) [Example 27],242 to 243 °C
